Experimental data: patent US7939662B2, “Amorphous ziprasidone hydrochloride (5-[2-[4-(1,2-benzisothiazol-3-yl)-1-piperazinyl]ethyl]-6-chloro-1,3-dihydro-2H-indol-2-one hydrochloride) and processes to produce the same” (Apotex Pharmachem Inc., priority 2004, dated 2011)

How the values were obtained:
aqueous solubility = format: physicochemical; conditions: relative to those of the prior art; no test described
[1] = crystalline monohydrate form; background statement; cited from earlier work
[2] = as stated in U.S. Pat. No. 5,312,925; cited from earlier work

Cl.O=C1Cc2cc(CCN3CCN(c4nsc5ccccc45)CC3)c(Cl)cc2N1 [amorphous ziprasidone hydrochloride, 5-[2-[4-(1,2-benzisothiazol-3-yl)-1-piperazinyl]ethyl]-6-chloro-1,3-dihydro-2H-indol-2-one hydrochloride]
water solubility relative to the prior art forms (aqueous solubility): better water solubility

Cl.O=C1Cc2cc(CCN3CCN(c4nsc5ccccc45)CC3)c(Cl)cc2N1 [ziprasidone hydrochloride monohydrate, 5-[2-[4-(1,2-benzisothiazol-3-yl)-1-piperazinyl]ethyl]-6-chloro-1,3-dihydro-2H-indol-2-one hydrochloride]
aqueous solubility [1]: very low | hygroscopic stability [2]: hygroscopically stable
